# Measured values from patent US7307166B1, “Oxpurine nucleosides and their congeners, and acyl, derivatives thereof, for improvement of hematopoiesis” (Wellstat Therapeutics Corporation, priority 1987, dated 2007).
# Assays:
# Balb/C female mice [1] = assay: Hematopoietic recovery after cyclophosphamide in mice (spleen weight, blood cell counts); assay type: in vivo, mouse; conditions: Ex 48: day 7 after CP; 2.5 μmoles/mouse
# Protocol: Twenty-four hours later and each day thereafter for a total of 6 days, mice were given a 0.4 ml i.p. injection of either physiological saline (controls), guanine (5 μmoles/mouse/day), or guanosine (5 μmoles/mouse/day). On day 7 all 10 mice in each of the three groups were bled, and then sacrificed by cervical dislocation. Spleens were removed and weighed, and complete blood cell counts performed.
# Twenty-four hours later and each day thereafter for a total of 6 days, mice were given a 0.4 ml i.p injection of either physiological saline (controls), Tween 80 (0.2%), guanosine (5 μmoles/mouse/day in 0.2% Tween 80), or 2.5 μmoles per mouse per day of one of the following acylated derivatives of guanosine in 0.2% Tween 80: triacetylguanosine, octanoylguanosine, lauroylguanosine, or palmitoylguanosine. On day 7 following CP administration all 10 animals from each of the 7 groups were bled, and then sacrificed by cervical dislocation. Spleens were removed and weighed, and complete blood counts performed.
# Twenty-four hours later treatment was begun. Mice were given a 0.4 ml i.p. injection of either physiological saline (controls), Tween 80 (0.2%), or palmitoylguanosine (5 μmoles/mouse/day in 0.2% Tween 80). The timing of the treatments was varied within the groups. The control group was given saline on days 1-6. The mice receiving Tween 80 were treated either on days 1-4, 4-6 or 1-6. Palmitoylguanosine-treated mice were treated either on days 1-2, 1-4, 3-5, 4-6 or 1-6. If a group of mice received no Tween 80 or palmitoylguanosine on a given day, saline was administered by i.p. injection. Thus, there were 9 groups of 9 animals in all. On day 7 following CP administration all of the animals were bled and then sacrificed by cervical dislocation. Spleens were removed and weighed, and complete blood cell counts performed.
# Twenty-four hours later and each day thereafter for a total of 6 days, mice were given a 0.4 ml i.p. injection of either physiological saline (controls), Tween 80 (0.5%), or one of three different doses of octanoylguanosine (0.5, 2.5, or 5 μmoles/mouse/day in 0.5% Tween 80). On day 7 following CP administration all 9 animals from each of the […] were bled and then sacrificed by cervical dislocation. Spleens were removed and weighed, and complete blood cell counts performed.
# Twenty-four hours later and each day thereafter for a total of 6 days, mice were given a 0.4 ml i.p. injection of either physiological saline (controls), Tween 80 (0.5%), or octanoylguanosine (5.0 μmoles/mouse/day in 0.5% Tween 80). On day 7 following CP administration all 10 animals from each of the 3 groups were bled and then sacrificed by cervical dislocation. Spleens were removed, weighed, and fixed in 10% formalin for later histological examination. Complete blood cell counts were performed on the collected blood.
# Twenty-four hours later and each day thereafter for a total of 6 days, mice were given a 0.4 ml i.p. injection of either physiological saline (controls), benzoylguanosine (2.5 μmoles/mouse/day in 0.2% Tween 80), or palmitoylguanosine (2.5 μmoles/mouse/day in 0.2% Tween 80). On days 7 and 10 following CP administration 8 animals from each of the 3 groups were bled and then were sacrificed by cervical dislocation. Spleens were removed and weighed, and complete blood cell counts performed.
# Twenty four hours later and each day thereafter for a total of 4 or 6 days, mice were given a 0.4 ml i.p. injection of either physiological saline (controls), palmitoyldeoxyinosine (2.5 μmoles/mouse), or palmitoyl-xanthosine (2.5 μmoles/mouse). On days 5 and 7 following CP administration 6 of the 12 animals in each of the 3 groups were bled and then sacrificed by cervical dislocation. Spleens were removed and weighed, and complete blood cell counts performed.
# [2] = system: Normal Balb/C female mice; assay: Hematopoiesis in normal mice; assay type: in vivo, mouse; conditions: for spleen weights: 2.5 Moles/mouse/day i.p.; for number of myelocytes (femoral bone marrow) / spleen weight: Ex 56: fifth day; for number of myelocytes (femoral bone marrow): 2.6 μmoles/mouse daily 4 days; for spleen weight: 2.6 μmoles/mouse i.p. daily 4 days
# Protocol: Normal, otherwise untreated, female Balb/C mice weighing approximately 20 grams each received a total of 4 or 9 0.4 ml intraperitoneal injections (one per day) of either Tween-80 (0.2%) (controls), palmitoylguanosine ([…]), or palmitoyldeoxyinosine ([…]). Twenty-four hours after the 4th or 9th treatment, groups of 5 or 6 animals from each of the 3 groups were bled and then sacrificed by cervical dislocation. Spleens were removed and weighed, and complete blood cell counts performed.
# Normal Balb/C female mice weighing approximately 20 grams each were given a daily 0.4 ml i.p. injection of either physiological saline (controls), palmitoylguanosine (2.6 μmoles/mouse), palmitoyldeoxyguanosine (2.6 μmoles/mouse), monopalmitoylguanosine 2′,3′-acyclic dialcohol (2.6 μmoles/mouse), and palmitoyl-8-bromoguanosine (2.6 μmoles/mouse) for 4 days. On the fifth day all 3 animals in each of the 5 groups were bled and then sacrificed by cervical dislocation. Spleens were removed and weighed, and complete blood cell counts performed. Femoral bone marrow from each mouse was collected and a differential cell count performed on marrow smears.
# Balb/C female mice [3] = assay: Hematopoietic recovery after cyclophosphamide in mice (spleen weight, blood cell counts); assay type: in vivo, mouse
# [4] = system: IL-3-dependent bone marrow cells; assay: Apoptosis of IL-3-dependent bone marrow cells deprived of IL-3 (trypan blue exclusion); assay type: cell-based, mouse
# Protocol: Bone marrow cells were obtained by flushing the femurs of three male B6D2F1 mice. The cells were plated at 5.0×10^5/ml in MEM plus 10% fetal calf serum and 25 Units/ml of recombinant IL-3 for 24-48 hours. Non-adherent cells were then separated from adherent cells and maintained for an additional twelve days. IL-3 washed from cells, and cells were plated in MEM plus 10% fetal calf serum in the presence or absence of IL-3 and with or without the addition of palmitoyldeoxyguanosine (10 micrograms per milliliter) or deoxyguanosine (10 micrograms per milliliter). Cells were counted using the trypan blue exclusion method, and the percent of dead cells (trypan blue positive) was determined at 24, 40, 60 and 84 hours following the wash.
# [5] = system: human myeloid leukemia cell line (HL-60); conditions: incubation of HL-60 cells; cited from earlier work
# Balb/C female mice [6] = assay: Hematopoietic recovery after 5-fluorouracil in mice; assay type: in vivo, mouse
# Protocol: 5-fluorouracil (5-FU) (150 mg/kg, i.p.) was administered to forty Balb/C female mice weighing approximately 20 grams each. Twenty-four hours later and each day thereafter for a total of 8 days, mice were given a 0.4 ml i.p. injection of either physiological saline (controls) or 5′-O-palmitoylguanosine (2.5 μmoles/mouse/day in 0.2% Tween 80). On days 7 and 14 following 5-FU administration half of the animals from each group were bled and then were sacrificed by cervical dislocation. Spleens were removed and weighed, and complete blood cells counts performed.
# 5-fluorouracil (5-FU) (150 mg/kg, i.p.) was administered to fifty-four Balb/C female mice weighing approximately 20 grams each. Twenty-four hours later and each day thereafter for a total of 7 days, mice were given a 0.4 ml i.p. injection of either physiological saline (controls) or palmitoylguanosine (2.5 μmoles/mouse/day in 0.2% Tween 80). On days 8, 10 and 12 following administration of 5-FU nine animals from each group were bled and then sacrificed by cervical dislocation. Spleens were removed and weighed, and complete blood cell counts performed.
# Twenty-eight female Balb/C mice weighing approximately 20 grams each received a 0.4 ml i.p. injection of either physiological saline (controls), or palmitoyldeoxyguanosine (1 μmole/mouse) daily for three days. On the fourth day 5-fluorouracil (5-FU) (150 mg/kg, i.p.) was administered to all 28 of the animals. On days 5, 8 and 11 following 5-FU administration 4 (day 5) or 5 (days 8 and 11) animals from both groups were bled and then sacrificed by cervical dislocation. Spleens were removed and weighed, and complete blood cell counts performed. […]
# Sixty female Balb/C mice weighing approximately 20 grams each were distributed into one of five treatment groups and treated once daily for three days by i.p. injection with 3′,5′-O—N^2-tripalmitoyl-2′-deoxyguanosine at a dose of either 1, 5, 10, 25, or 50 mg/kg/treatment in a Tween-DMSO vehicle (0.2% Tween-80 and 7.5% DMSO in physiological saline). Injection volume was 0.4 ml. An additional twelve animals (controls) received vehicle alone on those three days. On the fourth day all seventy-two animals received a single i.p. injection of 5-fluorouracil (5-FU) at a dose of 150 mg/kg. On days 7 and 10 following 5-FU administration six mice from each group were bled and then sacrificed by cervical dislocation. Six untreated mice were also bled and sacrificed to provide data on normal (basal) values. Spleens were removed and weighed, and complete blood cell counts performed.
# F344 male rats = assay: Recovery of blood cell counts in rats after cyclophosphamide; assay type: in vivo, rat
# Protocol: Cyclophosphamide (CP) (40 mg/kg, i.p.) was administered to 16 F344 male rats weighing approximately 200 grams each. Twenty-four hours later and each day thereafter rats were given a 0.5 ml i.p. injection of either physiological saline (controls), or palmitoyldeoxyguanosine at a dose of 10 μmoles/rat. On days 5, 7 and 10 following CP administration all 8 animals from both groups were bled and complete blood cell counts performed. On day 10 all of the rats were sacrificed and their spleens removed and weighed.
# [7] = Ex 48: day 5 after CP, 2.5 μmoles/mouse
# [8] = Ex 50: day 5 after CP, 2 μmoles/mouse
# [9] = Ex 57: day 8 after 5-FU, pretreatment
# [10] = Ex 57: day 11 after 5-FU, pretreatment
# [11] = Ex 51: day 5 after CP, 2 μmoles/mouse
# [12] = Ex 52: days 5 and 7 after CP, 0.2-2.0 μmoles/mouse, except 0.2 on day 5
# [13] = Ex 53: day 5 after CP, palmitoylguanosine 2.0, palmitoyldeoxyguanosine 1.0 μmoles/mouse
# [14] = Ex 53: day 7 after CP, palmitoylguanosine 1.0 and 2.0, palmitoyldeoxyguanosine 1.0 μmoles/mouse
compound,measurement,setting,value
CCCCCCCCCCCCCCCC(=O)OC[C@H]1O[C@@H](n2cnc3c(=O)[nH]cnc32)C[C@@H]1O,Neutrophils,Balb/C female mice [1],significantly increased
same,total leukocytes,Balb/C female mice [1],significantly increased
same,spleen weights,"[2]; Ex 44: day 5, 4 injections",significantly greater
same,spleen weights,"[2]; Ex 44: day 10, 9 injections, vs Tween 80",significantly greater
same,neutrophil counts,"[2]; Ex 44: day 10, 9 injections",significantly greater
same,total leukocyte counts,"[2]; Ex 44: day 10, 9 injections",significantly greater
same,neutrophil counts,Balb/C female mice [3]; [7],significantly elevated
same,total leukocyte counts,Balb/C female mice [3]; [7],significantly elevated
same,spleen weight,"Balb/C female mice [3]; Ex 48: day 5 after CP, 2.5 μmoles/mouse i.p. daily",significantly elevated
same,spleen weight,"Balb/C female mice [3]; Ex 48: day 7 after CP, 2.5 μmoles/mouse",significantly increased
same,spleen weight,Balb/C female mice [3]; [8],significantly elevated
"Nc1nc2c(ncn2[C@H]2C[C@H](O)[C@@H](CO)O2)c(=O)[nH]1 [dG, deoxyguanosine]",% Dead Cells,"[4]; 24 hr after IL-3 wash, PdG or dG 10 micrograms per milliliter without IL-3, +IL3 = with IL-3",15.5 ± 0.5%
same,% Dead Cells,"[4]; 40 hr after IL-3 wash, 10 micrograms per milliliter",21.5 ± 3.5 %
same,% Dead Cells,"[4]; 60 hr after IL-3 wash, 10 micrograms per milliliter",46.3 ± 10.3%
same,% Dead Cells,"[4]; 84 hr after IL-3 wash, 10 micrograms per milliliter",68.3 ± 6.0%
"OC[C@H]1O[C@@H](n2cnc3c(O)ncnc32)[C@H](O)[C@@H]1O [inosine, reference compound]",induced maturation into functional neutrophils,[5],no effect
CCCCCCCCCCCCCCCC(=O)OC[C@H]1O[C@@H](n2c(Br)nc3c(=O)[nH]c(N)nc32)[C@H](O)[C@@H]1O [palmitoyl-8-bromoguanosine],number of myelocytes (femoral bone marrow),[2],significantly greater
Palmitoyl-2′-Deoxyguanosine [palmitoyldeoxyguanosine],platelet counts,"Balb/C female mice [6]; Ex 57: day 5 after 5-FU, pretreatment 1 μmole/mouse i.p. daily 3 days",significantly elevated
same,platelet counts,Balb/C female mice [6]; [9],significantly higher
same,total neutrophil counts,Balb/C female mice [6]; [9],significantly higher
same,spleen weight,"Balb/C female mice [6]; Ex 57: day 8 after 5-FU, pretreatment 1 μmole/mouse",significantly higher
same,lymphocyte counts,Balb/C female mice [6]; [10],significantly higher
same,platelet counts,Balb/C female mice [6]; [10],significantly higher
same,spleen weights,Balb/C female mice [6]; [10],significantly higher
same,total neutrophil counts,Balb/C female mice [6]; [10],significantly higher
same,total white blood cell counts,Balb/C female mice [6]; [10],significantly higher
same,number of myelocytes (femoral bone marrow),[2],significantly greater
same,spleen weight,[2],significantly elevated
same,Lymphocytes,"F344 male rats; day 10 after CP, 10 μmoles/rat",significantly elevated
same,Platelets,"F344 male rats; day 10 after CP, 10 μmoles/rat",significantly elevated
same,spleen weight,"F344 male rats; day 10 after CP, 10 μmoles/rat",significantly elevated
same,white blood cell counts,"F344 male rats; days 5, 7 and 10 after CP 40 mg/kg, 10 μmoles/rat i.p. daily",significantly elevated
same,total neutrophil counts,"F344 male rats; days 5, 7 and 10 after CP, 10 μmoles/rat",significantly elevated
same,total neutrophil counts,Balb/C female mice [3]; [11],significantly elevated
same,white blood cell counts,Balb/C female mice [3]; [11],significantly elevated
same,spleen weight,"Balb/C female mice [3]; Ex 51: day 5 after CP, 2 μmoles/mouse i.p. daily, vs Tween-80",significantly elevated
same,spleen weight,"Balb/C female mice [3]; Ex 52: days 5 and 7 after CP, 0.2, 0.4, 1.0, 2.0 μmoles/mouse, except 0.2 on day 5",significantly elevated
same,total neutrophil counts,Balb/C female mice [3]; [12],significantly elevated
same,white blood cell counts,Balb/C female mice [3]; [12],significantly elevated
same,spleen weight,Balb/C female mice [3]; [13],significantly elevated
same,total neutrophil counts,Balb/C female mice [3]; [13],significantly elevated
same,white blood cell counts,Balb/C female mice [3]; [13],significantly elevated
same,spleen weight,Balb/C female mice [3]; [14],significantly elevated
same,total neutrophil counts,Balb/C female mice [3]; [14],significantly elevated
same,white blood cell counts,Balb/C female mice [3]; [14],significantly elevated
same,potency in elevating spleen weight and cell counts vs palmitoylguanosine,Balb/C female mice [3]; Ex 53: vs the same or a 2-fold greater dose of palmitoylguanosine,more potent
same,spleen weight,"Balb/C female mice [3]; Ex 54: day 5 after CP, doses of 0.2 μmoles/mouse or greater",significantly elevated
same,white blood cell counts,"Balb/C female mice [3]; Ex 54: day 5 after CP, doses of 0.4 μmoles/mouse or greater",significantly elevated
same,white blood cell counts,"Balb/C female mice [3]; Ex 54: day 7 after CP, all doses 0.04-0.8 μmoles/mouse",statistically significant differences
same,spleen weight,"Balb/C female mice [3]; Ex 54: day 7 after CP, all doses except 0.04 μmoles/mouse",significantly elevated
same,total neutrophil counts,"Balb/C female mice [3]; Ex 54: days 5 and 7 after CP, all 6 doses 0.04-0.8 μmoles/mouse",significantly elevated
"monopalmitoylguanosine 2′,3′-acyclic dialcohol",number of myelocytes (femoral bone marrow),[2],significantly greater
same,spleen weight,[2],significantly elevated
same,spleen weight,Balb/C female mice [3]; [8],significantly elevated
